According to ChEMBL document CHEMBL1201861, “Genomics of Drug Sensitity in Cancer screening data, Wellcome Trust Sanger Institute”:
Several values for one entry are separate records, joined by “and”; a condition that tells them apart may be missing. Equal values may be shown once.

Key:
Test in all cases: cells
BCPAP = assay type: functional, cell-based, Homo sapiens;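 also: growth inhibition of BCPAP cells, read out in a cell viability assay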
Description: SANGER: Inhibition of human BCPAP cell growth in a cell viability assay.

MFM-223 = assay type: functional, cell-based, Homo sapiens
Description: SANGER: Inhibition of human MFM-223 cell growth in a cell viability assay.

ASPC1 = assay type: functional, cell-based, Homo sapiens;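 also: growth inhibition of AsPC-1 cells, read out with a cell viability assay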
Description: SANGER: Inhibition of human AsPC-1 cell growth in a cell viability assay.

GI-ME-N = assay type: functional, cell-based, Homo sapiens;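 also: growth inhibition of human GI-ME-N cells, read out with a cell viability assay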
Description: SANGER: Inhibition of human GI-ME-N cell growth in a cell viability assay.

MZ7-mel = assay type: functional, cell-based, Homo sapiens;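 also: growth inhibition of human MZ7-mel cells, measured by a cell viability assay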
Description: SANGER: Inhibition of human MZ7-mel cell growth in a cell viability assay.

697 = assay type: functional, cell-based; conditions: Homo sapiens
Description: SANGER: Inhibition of human 697 cell growth in a cell viability assay.

CAL-39 = assay type: functional, cell-based, Homo sapiens;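 also: cell viability assay measuring growth inhibition of CAL-39 cells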
Description: SANGER: Inhibition of human CAL-39 cell growth in a cell viability assay.

CAL-54 = assay type: functional, cell-based, Homo sapiens;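 also: growth inhibition of CAL-54 cells, read out by a viability measurement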
Description: SANGER: Inhibition of human CAL-54 cell growth in a cell viability assay.

NCI-H1437 = assay type: functional, cell-based, Homo sapiens;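 also: growth inhibition of human NCI-H1437 cells, read out by a cell viability assay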
Description: SANGER: Inhibition of human NCI-H1437 cell growth in a cell viability assay.

HAL-01 = assay type: functional, cell-based; conditions: Homo sapiens;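 also: growth inhibition of human HAL-01 cells, read out with a cell viability assay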
Description: SANGER: Inhibition of human HAL-01 cell growth in a cell viability assay.

NCI-H1155 = assay type: functional, cell-based; conditions: Homo sapiens;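 also: cell growth inhibition measured by a viability assay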
Description: SANGER: Inhibition of human NCI-H1155 cell growth in a cell viability assay.

Ca-Ski = assay type: functional, cell-based; conditions: Homo sapiens;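 also: cell viability assay measuring inhibition of Ca-Ski cell growth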
Description: SANGER: Inhibition of human Ca-Ski cell growth in a cell viability assay.

SK-N-DZ = assay type: functional, cell-based, Homo sapiens;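 also: growth inhibition of the cancer cell line, read out through a viability assay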
Description: SANGER: Inhibition of human SK-N-DZ cell growth in a cell viability assay.

HDLM-2 = assay type: functional, cell-based; conditions: Homo sapiens;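 also: cell viability assay measuring suppression of HDLM-2 proliferation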
Description: SANGER: Inhibition of human HDLM-2 cell growth in a cell viability assay.

BHY = assay type: functional, cell-based, Homo sapiens;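 also: cell growth inhibition read out by a viability assay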
Description: SANGER: Inhibition of human BHY cell growth in a cell viability assay.

MHH-PREB-1 = assay type: functional, cell-based; conditions: Homo sapiens;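 also: cell viability assay measuring inhibition of proliferation of human MHH-PREB-1 cells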
Description: SANGER: Inhibition of human MHH-PREB-1 cell growth in a cell viability assay.

NCI-H1651 = assay type: functional, cell-based, Homo sapiens;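 also: Read-out is a cell viability assay, with IC50 expressing inhibition of NCI-H1651 cell growth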
Description: SANGER: Inhibition of human NCI-H1651 cell growth in a cell viability assay.

LCLC-97TM1 = assay type: functional, cell-based, Homo sapiens;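 also: cell viability assay measuring growth inhibition of human LCLC-97TM1 cells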
Description: SANGER: Inhibition of human LCLC-97TM1 cell growth in a cell viability assay.

EC-GI-10 = assay type: functional, cell-based, Homo sapiens; conditions: ec-gi-10
Description: SANGER: Inhibition of human EC-GI-10 cell growth in a cell viability assay.

KYSE-410 = assay type: functional, cell-based, Homo sapiens;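 also: growth inhibition of KYSE-410 cells, measured through a cell viability readout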
Description: SANGER: Inhibition of human KYSE-410 cell growth in a cell viability assay.

M059J = assay type: functional, cell-based, Homo sapiens;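 also: growth inhibition of M059J cells, read out with a cell viability assay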
Description: SANGER: Inhibition of human M059J cell growth in a cell viability assay.

SW756 = assay type: functional, cell-based, Homo sapiens;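 also: growth inhibition of human SW756 cells, read out with a cell viability assay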
Description: SANGER: Inhibition of human SW756 cell growth in a cell viability assay.

EW-18 = assay type: functional, cell-based; conditions: Homo sapiens;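 also: growth inhibition of EW-18 cells, read out by a cell viability assay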
Description: SANGER: Inhibition of human EW-18 cell growth in a cell viability assay.

ES3 = assay type: functional, cell-based, Homo sapiens;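 also: growth inhibition of ES3 cells, read out with a cell viability assay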
Description: SANGER: Inhibition of human ES3 cell growth in a cell viability assay.

NMC-G1 = assay type: functional, cell-based, Homo sapiens;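 also: growth inhibition of the NMC-G1 cell line, measured with a cell viability read-out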
Description: SANGER: Inhibition of human NMC-G1 cell growth in a cell viability assay.

NB5 = assay type: functional, cell-based, Homo sapiens;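 also: growth inhibition of NB5 cells, read out as cell viability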
Description: SANGER: Inhibition of human NB5 cell growth in a cell viability assay.

MCF7 = assay type: functional, cell-based, Homo sapiens;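 also: growth inhibition of human MCF7 cells, read out with a cell viability assay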
Description: SANGER: Inhibition of human MCF7 cell growth in a cell viability assay.

A498 = assay type: functional, cell-based, Homo sapiens;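 also: growth inhibition of human A498 cells, read out with a cell viability assay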
Description: SANGER: Inhibition of human A498 cell growth in a cell viability assay.

GP5d = assay type: functional, cell-based, Homo sapiens;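 also: growth inhibition of human GP5d cells, read out with a cell viability assay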
Description: SANGER: Inhibition of human GP5d cell growth in a cell viability assay.

HuO-3N1 = assay type: functional, cell-based, Homo sapiens;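 also: cell viability readout used to measure how strongly compounds suppress proliferation of human HuO-3N1 cells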
Description: SANGER: Inhibition of human HuO-3N1 cell growth in a cell viability assay.

NCI-H82 = assay type: functional, cell-based; conditions: Homo sapiens;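 also: growth inhibition of NCI-H82 cells, measured with a cell viability readout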
Description: SANGER: Inhibition of human NCI-H82 cell growth in a cell viability assay.

CAL-33 = assay type: functional, cell-based, Homo sapiens;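 also: growth inhibition of CAL-33 cells, read out with a cell viability assay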
Description: SANGER: Inhibition of human CAL-33 cell growth in a cell viability assay.

COLO-800 = assay type: functional, cell-based, Homo sapiens;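 also: growth inhibition of COLO-800 cells, read out with a cell viability assay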
Description: SANGER: Inhibition of human COLO-800 cell growth in a cell viability assay.

SK-MEL-2 = assay type: functional, cell-based, Homo sapiens;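 also: growth inhibition of human SK-MEL-2 cells measured with a cell viability assay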
Description: SANGER: Inhibition of human SK-MEL-2 cell growth in a cell viability assay.

MDA-MB-175-VII = assay type: functional, cell-based, Homo sapiens
A673 = assay type: functional, cell-based, Homo sapiens;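 also: growth inhibition of human A673 cells, read out through a cell viability assay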
Description: SANGER: Inhibition of human A673 cell growth in a cell viability assay.

KYSE-450 = assay type: functional, cell-based; conditions: Homo sapiens;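 also: cell growth inhibition measured by a viability assay in human KYSE-450 cells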
Description: SANGER: Inhibition of human KYSE-450 cell growth in a cell viability assay.

DSH1 = assay type: functional, cell-based, Homo sapiens;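 also: growth inhibition of human DSH1 cells, measured with a cell viability readout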
Description: SANGER: Inhibition of human DSH1 cell growth in a cell viability assay.

NCI-H1792 = assay type: functional, cell-based, Homo sapiens;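 also: growth inhibition of human NCI-H1792 cells, read out as cell viability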
Description: SANGER: Inhibition of human NCI-H1792 cell growth in a cell viability assay.

GMS-10 = assay type: functional, cell-based, Homo sapiens;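 also: growth inhibition of GMS-10 cells, read out as cell viability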
Description: SANGER: Inhibition of human GMS-10 cell growth in a cell viability assay.

HCC1806 = assay type: functional, cell-based, Homo sapiens;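 also: growth inhibition of the cancer cell line, determined with a cell viability assay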
Description: SANGER: Inhibition of human HCC1806 cell growth in a cell viability assay.

TE-12 = assay type: functional, cell-based; conditions: Homo sapiens;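 also: growth inhibition of TE-12 cells, read out by a cell viability assay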
Description: SANGER: Inhibition of human TE-12 cell growth in a cell viability assay.

NCI-H1648 = assay type: functional, cell-based, Homo sapiens;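 also: cell viability assay measuring inhibition of NCI-H1648 cell growth, from the Sanger screening data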
Description: SANGER: Inhibition of human NCI-H1648 cell growth in a cell viability assay.

HEL = assay type: functional, cell-based, Homo sapiens;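 also: growth inhibition of HEL cells, read out with a cell viability assay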
Description: SANGER: Inhibition of human HEL cell growth in a cell viability assay.

GOTO = assay type: functional, cell-based, Homo sapiens;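 also: growth inhibition of GOTO cells, read out by a cell viability assay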
Description: SANGER: Inhibition of human GOTO cell growth in a cell viability assay.

CCRF-CEM = assay type: functional, cell-based; conditions: Homo sapiens;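 also: inhibition of CCRF-CEM cell growth, measured by a cell viability assay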
Description: SANGER: Inhibition of human CCRF-CEM cell growth in a cell viability assay.

MOLT-4 = assay type: functional, cell-based; conditions: Homo sapiens;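 also: growth inhibition of MOLT-4 cells, determined with a cell viability readout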
Description: SANGER: Inhibition of human MOLT-4 cell growth in a cell viability assay.

ONS-76 = assay type: functional, cell-based, Homo sapiens;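 also: growth inhibition of human ONS-76 cells, read out with a cell viability assay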
Description: SANGER: Inhibition of human ONS-76 cell growth in a cell viability assay.

TE-1 = assay type: functional, cell-based, Homo sapiens
Description: SANGER: Inhibition of human TE-1 cell growth in a cell viability assay.

SK-MEL3 = assay type: functional, cell-based, Homo sapiens, SK-MEL-3;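 also: growth inhibition of human SK-MEL-3 cells, read out with a cell viability assay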
Description: SANGER: Inhibition of human SK-MEL-3 cell growth in a cell viability assay.

H4 = assay type: functional, cell-based; conditions: Homo sapiens
Description: SANGER: Inhibition of human H4 cell growth in a cell viability assay.

VMRC-RCZ = assay type: functional, cell-based; conditions: Homo sapiens;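 also: growth inhibition measured with a cell viability assay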
Description: SANGER: Inhibition of human VMRC-RCZ cell growth in a cell viability assay.

Measured: IC50

Cc1cc([C@@H](C)Nc2ccccc2C(=O)O)c2nc(N3CCOCC3)cc(=O)n2c1 [AZD-6482]
2 µM and > 5.12 µM: CAL-39; cal-39
> 5.12 µM and 3.35 µM: MCF7; mcf7
> 5.12 µM: BCPAP; Homo sapiens, BCPAP | BCPAP; bcpap | MFM-223; mfm-223 | ASPC1; aspc1 | GI-ME-N; gi-me-n | MZ7-mel; Homo sapiens, MZ7-mel | MZ7-mel; mz7-mel | NCI-H1437; nci-h1437 | NCI-H1155 | HDLM-2 | BHY; bhy | MHH-PREB-1 | NCI-H1651; Homo sapiens, NCI-H1651 | NCI-H1651; nci-h1651 | LCLC-97TM1; Homo sapiens, LCLC-97TM1 | LCLC-97TM1; lclc-97tm1 | EC-GI-10 | KYSE-410; kyse-410 | M059J; Homo sapiens, M059J | M059J; m059j | SW756; Homo sapiens, SW756 | SW756; sw756 | EW-18 | ES3; Homo sapiens, ES3 | ES3; es3 | NMC-G1; Homo sapiens, NMC-G1 | NMC-G1; nmc-g1 | NB5; nb5 | GP5d; Homo sapiens, GP5d | GP5d; gp5d | HuO-3N1; Homo sapiens, HuO-3N1 | HuO-3N1; huo-3n1 | NCI-H82 | COLO-800; colo-800 | SK-MEL-2; Homo sapiens, SK-MEL-2 | SK-MEL-2; sk-mel-2 | MDA-MB-175-VII; mda-mb-175-vii | A673; Homo sapiens, A673 | A673; a673 | KYSE-450 | DSH1; Homo sapiens, DSH1 | DSH1; dsh1 | NCI-H1792; nci-h1792 | GMS-10; Homo sapiens, GMS-10 | GMS-10; gms-10 | HCC1806; hcc1806 | TE-12 | NCI-H1648; Homo sapiens, NCI-H1648 | NCI-H1648; nci-h1648 | HEL; hel | GOTO; Homo sapiens, GOTO | GOTO; goto | MOLT-4 | ONS-76; ons-76 | TE-1; Homo sapiens, TE-1 | TE-1; te-1 | SK-MEL3; Homo sapiens, SK-MEL3 | SK-MEL3; sk-mel-3
1.3 µM: HAL-01
4.6 µM: 697
3.61 µM: CCRF-CEM
1.49 µM: CAL-33; Homo sapiens, CAL-33
2.55 µM: CAL-33; cal-33
0.118 µM and 0.459 µM: A498; a498
> 5.12 µM and 2.32 µM: SK-N-DZ; sk-n-dz
> 5.12 µM and 1.25 µM: CAL-54; cal-54
1.93 µM: Ca-Ski

O=c1cc(-c2cccc3c2Sc2ccccc2S3)oc(N2CCOCC2)c1 [KU-55933]
4.17 µM: HuO-3N1; Homo sapiens, HuO-3N1
8.29 µM: SK-MEL3; Homo sapiens, SK-MEL3
9.81 µM: NCI-H1437; Homo sapiens, NCI-H1437
> 10 µM: BCPAP; Homo sapiens, BCPAP | MFM-223; Homo sapiens, MFM-223 | ASPC1; Homo sapiens, ASPC1 | GI-ME-N; Homo sapiens, GI-ME-N | MZ7-mel; Homo sapiens, MZ7-mel | 697 | CAL-39; Homo sapiens, CAL-39 | CAL-54; Homo sapiens, CAL-54 | HAL-01 | NCI-H1155 | Ca-Ski | SK-N-DZ; Homo sapiens, SK-N-DZ | H4 | HDLM-2 | BHY; Homo sapiens, BHY | MHH-PREB-1 | NCI-H1651; Homo sapiens, NCI-H1651 | LCLC-97TM1; Homo sapiens, LCLC-97TM1 | KYSE-410; Homo sapiens, KYSE-410 | M059J; Homo sapiens, M059J | SW756; Homo sapiens, SW756 | ES3; Homo sapiens, ES3 | NMC-G1; Homo sapiens, NMC-G1 | NB5; Homo sapiens, NB5 | MCF7; Homo sapiens, MCF7 | A498; Homo sapiens, A498 | GP5d; Homo sapiens, GP5d | NCI-H82 | CAL-33; Homo sapiens, CAL-33 | VMRC-RCZ | COLO-800; Homo sapiens, COLO-800 | SK-MEL-2; Homo sapiens, SK-MEL-2 | MDA-MB-175-VII; Homo sapiens, MDA-MB-175-VII | A673; Homo sapiens, A673 | KYSE-450 | DSH1; Homo sapiens, DSH1 | NCI-H1792; Homo sapiens, NCI-H1792 | GMS-10; Homo sapiens, GMS-10 | HCC1806; Homo sapiens, HCC1806 | TE-12 | NCI-H1648; Homo sapiens, NCI-H1648 | HEL; Homo sapiens, HEL | GOTO; Homo sapiens, GOTO | CCRF-CEM | MOLT-4 | ONS-76; Homo sapiens, ONS-76 | TE-1; Homo sapiens, TE-1
